Key:
Format in all cases: in vivo
Chenopodium album [1] = assay: Herbicidal activity, postemergence test; conditions: post; sprayed onto seedling plants, 800 g of active material per hectare; evaluated 2 weeks after treatment
Protocol: (§1) To evaluate their herbicidal activity, compounds according to the invention are tested using a representative range of plants: TRZAW Triticum aestivum HORVW Hordeum vulgare ZEAMX Zea mays GOSHI Gossypium hirsutum HELAN Helianthus annuus GLYMA Glycine max ALOMY Alopecurus myosuroides SETVI Setaria viridis ECHCG Echinochloa crus-galli GALAP Galium aparine STEME Stellaria media VERPE Veronica persica VIOAR Viola arvensis IPOHE Ipomoea hederacea LAMPU Lamium purpureum PAPRH Papaver rhoeas MATIN Matricaria inodora AMARE Amaranthus retroflexus ABUTH Abutilon theophrasti AMBEL Ambrosia artemisifolia CHEAL Chenopodium album
(§2) The tests fall into two categories, preemergence and postemergence. The preemergence tests involve spraying a liquid formulation of the compound onto the soil in which the seeds have recently been sown. The postemergence tests involve spraying a liquid formulation of the compound onto seedling plants.
(§3) The soil used in the tests is a prepared horticultural loam.
(§4) The formulations used in the tests are prepared from solutions of the test compounds in acetone containing 0.4% by weight of an alkylphenol/ethylene oxide condensate available under the trade mark TRITON X-155. These acetone solutions are diluted with water and the resulting formulations applied at dosage levels corresponding to 800 g of active material per hectare in a volume equivalent to 900 litres per hectare.
(§5) In the preemergence tests untreated sown soil and in the postemergence tests untreated soil bearing seedling plants are used as controls.
(§6) Results of herbicide evaluation are expressed on a rating scale (0-9). The scale is based upon a visual observation of plant stand, vigor, malformation, size, chlorosis, and general plant appearance as compared to a control. Preemergence and postemergence treatments are evaluated at 3 and 2 weeks after treatment, respectively.

Matricaria inodora [2] = assay: Herbicidal activity, postemergence test; conditions: post; sprayed onto seedling plants, 800 g of active material per hectare; evaluated 2 weeks after treatment
Protocol: as §1, §2, §3, §4, §5, §6

Veronica persica [3] = assay: Herbicidal activity, postemergence test; conditions: post; sprayed onto seedling plants, 800 g of active material per hectare; evaluated 2 weeks after treatment
Protocol: as §1, §2, §3, §4, §5, §6

Galium aparine [4] = assay: Herbicidal activity, postemergence test; conditions: post; sprayed onto seedling plants, 800 g of active material per hectare; evaluated 2 weeks after treatment
Protocol: as §1, §2, §3, §4, §5, §6

Amaranthus retroflexus [5] = assay: Herbicidal activity, postemergence test; conditions: post; sprayed onto seedling plants, 800 g of active material per hectare; evaluated 2 weeks after treatment
Protocol: as §1, §2, §3, §4, §5, §6

Glycine max [6] = assay: Herbicidal activity, postemergence test; conditions: post; sprayed onto seedling plants, 800 g of active material per hectare; evaluated 2 weeks after treatment
Protocol: as §1, §2, §3, §4, §5, §6

Papaver rhoeas [7] = assay: Herbicidal activity, postemergence test; conditions: post; sprayed onto seedling plants, 800 g of active material per hectare; evaluated 2 weeks after treatment
Protocol: as §1, §2, §3, §4, §5, §6

Lamium purpureum [8] = assay: Herbicidal activity, postemergence test; conditions: post; sprayed onto seedling plants, 800 g of active material per hectare; evaluated 2 weeks after treatment
Protocol: as §1, §2, §3, §4, §5, §6

Alopecurus myosuroides [9] = assay: Herbicidal activity, postemergence test; conditions: post; sprayed onto seedling plants, 800 g of active material per hectare; evaluated 2 weeks after treatment
Protocol: as §1, §2, §3, §4, §5, §6

Triticum aestivum [10] = assay: Herbicidal activity, postemergence test; conditions: post; sprayed onto seedling plants, 800 g of active material per hectare; evaluated 2 weeks after treatment
Protocol: as §1, §2, §3, §4, §5, §6

Ipomoea hederacea [11] = assay: Herbicidal activity, postemergence test; conditions: post; sprayed onto seedling plants, 800 g of active material per hectare; evaluated 2 weeks after treatment
Protocol: as §1, §2, §3, §4, §5, §6

Stellaria media [12] = assay: Herbicidal activity, postemergence test; conditions: post; sprayed onto seedling plants, 800 g of active material per hectare; evaluated 2 weeks after treatment
Protocol: as §1, §2, §3, §4, §5, §6

Setaria viridis [13] = assay: Herbicidal activity, postemergence test; conditions: post; sprayed onto seedling plants, 800 g of active material per hectare; evaluated 2 weeks after treatment
Protocol: as §1, §2, §3, §4, §5, §6

Zea mays [14] = assay: Herbicidal activity, postemergence test; conditions: post; sprayed onto seedling plants, 800 g of active material per hectare; evaluated 2 weeks after treatment
Protocol: as §1, §2, §3, §4, §5, §6

Abutilon theophrasti [15] = assay: Herbicidal activity, postemergence test; conditions: post; sprayed onto seedling plants, 800 g of active material per hectare; evaluated 2 weeks after treatment
Protocol: as §1, §2, §3, §4, §5, §6

Ambrosia artemisifolia [16] = assay: Herbicidal activity, postemergence test; conditions: post; sprayed onto seedling plants, 800 g of active material per hectare; evaluated 2 weeks after treatment
Protocol: as §1, §2, §3, §4, §5, §6

Gossypium hirsutum [17] = assay: Herbicidal activity, postemergence test; conditions: post; sprayed onto seedling plants, 800 g of active material per hectare; evaluated 2 weeks after treatment
Protocol: as §1, §2, §3, §4, §5, §6

Hordeum vulgare [18] = assay: Herbicidal activity, postemergence test; conditions: post; sprayed onto seedling plants, 800 g of active material per hectare; evaluated 2 weeks after treatment
Protocol: as §1, §2, §3, §4, §5, §6

Chenopodium album [19] = assay: Herbicidal activity, preemergence test; conditions: pre; sprayed onto soil, 800 g of active material per hectare; evaluated 3 weeks after treatment
Protocol: as §1, §2, §3, §4, §5, §6

Matricaria inodora [20] = assay: Herbicidal activity, preemergence test; conditions: pre; sprayed onto soil, 800 g of active material per hectare; evaluated 3 weeks after treatment
Protocol: as §1, §2, §3, §4, §5, §6

Veronica persica [21] = assay: Herbicidal activity, preemergence test; conditions: pre; sprayed onto soil, 800 g of active material per hectare; evaluated 3 weeks after treatment
Protocol: as §1, §2, §3, §4, §5, §6

Galium aparine [22] = assay: Herbicidal activity, preemergence test; conditions: pre; sprayed onto soil, 800 g of active material per hectare; evaluated 3 weeks after treatment
Protocol: as §1, §2, §3, §4, §5, §6

Amaranthus retroflexus [23] = assay: Herbicidal activity, preemergence test; conditions: pre; sprayed onto soil, 800 g of active material per hectare; evaluated 3 weeks after treatment
Protocol: as §1, §2, §3, §4, §5, §6

Glycine max [24] = assay: Herbicidal activity, preemergence test; conditions: pre; sprayed onto soil, 800 g of active material per hectare; evaluated 3 weeks after treatment
Protocol: as §1, §2, §3, §4, §5, §6

Papaver rhoeas [25] = assay: Herbicidal activity, preemergence test; conditions: pre; sprayed onto soil, 800 g of active material per hectare; evaluated 3 weeks after treatment
Protocol: as §1, §2, §3, §4, §5, §6

Lamium purpureum [26] = assay: Herbicidal activity, preemergence test; conditions: pre; sprayed onto soil, 800 g of active material per hectare; evaluated 3 weeks after treatment
Protocol: as §1, §2, §3, §4, §5, §6

Alopecurus myosuroides [27] = assay: Herbicidal activity, preemergence test; conditions: pre; sprayed onto soil, 800 g of active material per hectare; evaluated 3 weeks after treatment
Protocol: as §1, §2, §3, §4, §5, §6

Triticum aestivum [28] = assay: Herbicidal activity, preemergence test; conditions: pre; sprayed onto soil, 800 g of active material per hectare; evaluated 3 weeks after treatment
Protocol: as §1, §2, §3, §4, §5, §6

Ipomoea hederacea [29] = assay: Herbicidal activity, preemergence test; conditions: pre; sprayed onto soil, 800 g of active material per hectare; evaluated 3 weeks after treatment
Protocol: as §1, §2, §3, §4, §5, §6

Stellaria media [30] = assay: Herbicidal activity, preemergence test; conditions: pre; sprayed onto soil, 800 g of active material per hectare; evaluated 3 weeks after treatment
Protocol: as §1, §2, §3, §4, §5, §6

Setaria viridis [31] = assay: Herbicidal activity, preemergence test; conditions: pre; sprayed onto soil, 800 g of active material per hectare; evaluated 3 weeks after treatment
Protocol: as §1, §2, §3, §4, §5, §6

Zea mays [32] = assay: Herbicidal activity, preemergence test; conditions: pre; sprayed onto soil, 800 g of active material per hectare; evaluated 3 weeks after treatment
Protocol: as §1, §2, §3, §4, §5, §6

Abutilon theophrasti [33] = assay: Herbicidal activity, preemergence test; conditions: pre; sprayed onto soil, 800 g of active material per hectare; evaluated 3 weeks after treatment
Protocol: as §1, §2, §3, §4, §5, §6

Ambrosia artemisifolia [34] = assay: Herbicidal activity, preemergence test; conditions: pre; sprayed onto soil, 800 g of active material per hectare; evaluated 3 weeks after treatment
Protocol: as §1, §2, §3, §4, §5, §6

Gossypium hirsutum [35] = assay: Herbicidal activity, preemergence test; conditions: pre; sprayed onto soil, 800 g of active material per hectare; evaluated 3 weeks after treatment
Protocol: as §1, §2, §3, §4, §5, §6

Hordeum vulgare [36] = assay: Herbicidal activity, preemergence test; conditions: pre; sprayed onto soil, 800 g of active material per hectare; evaluated 3 weeks after treatment
Protocol: as §1, §2, §3, §4, §5, §6

Structure (SMILES) | CHEAL control rating (0-9) (Chenopodium album [1]) | MATIN control rating (0-9) (Matricaria inodora [2]) | VERPE control rating (0-9) (Veronica persica [3]) | GALAP control rating (0-9) (Galium aparine [4]) | AMARE control rating (0-9) (Amaranthus retroflexus [5]) | GLXMA control rating (0-9) (Glycine max [6]) | PAPRH control rating (0-9) (Papaver rhoeas [7]) | LAMPU control rating (0-9) (Lamium purpureum [8]) | ALOMY control rating (0-9) (Alopecurus myosuroides [9]) | TRZAW control rating (0-9) (Triticum aestivum [10]) | IPOHE control rating (0-9) (Ipomoea hederacea [11]) | STEME control rating (0-9) (Stellaria media [12]) | SETVI control rating (0-9) (Setaria viridis [13]) | ZEAMX control rating (0-9) (Zea mays [14]) | ABUTH control rating (0-9) (Abutilon theophrasti [15]) | AMBEL control rating (0-9) (Ambrosia artemisifolia [16]) | GOSHI control rating (0-9) (Gossypium hirsutum [17]) | HORVW control rating (0-9) (Hordeum vulgare [18]) | CHEAL control rating (0-9) (Chenopodium album [19]) | MATIN control rating (0-9) (Matricaria inodora [20]) | other results
C[C@H](NC(=O)c1nnc(C=Cc2ccccc2)o1)c1ccccc1 [Example 17] | 5 (definite injury) | 0 (no effect) | 3 (moderate effect) | 2 (slight effect) | 4 (injury) | 0 (no effect) | 5 (definite injury) | 6 (herbicidal effect) | 0 (no effect) | 0 (no effect) | 1 (trace effect) | 0 (no effect) | 0 (no effect) | 1 (trace effect) | 1 (trace effect) | 0 (no effect) | 3 (moderate effect) | 0 (no effect) | 0 (no effect) | 0 (no effect) | VERPE control rating (0-9) (Veronica persica [21]): 3 (moderate effect); GALAP control rating (0-9) (Galium aparine [22]): 0 (no effect); AMARE control rating (0-9) (Amaranthus retroflexus [23]): 0 (no effect); GLXMA control rating (0-9) (Glycine max [24]): 0 (no effect); PAPRH control rating (0-9) (Papaver rhoeas [25]): 5 (definite injury); LAMPU control rating (0-9) (Lamium purpureum [26]): 0 (no effect); ALOMY control rating (0-9) (Alopecurus myosuroides [27]): 0 (no effect); TRZAW control rating (0-9) (Triticum aestivum [28]): 0 (no effect); IPOHE control rating (0-9) (Ipomoea hederacea [29]): 0 (no effect); STEME control rating (0-9) (Stellaria media [30]): 0 (no effect); SETVI control rating (0-9) (Setaria viridis [31]): 0 (no effect); ZEAMX control rating (0-9) (Zea mays [32]): 0 (no effect); ABUTH control rating (0-9) (Abutilon theophrasti [33]): 0 (no effect); AMBEL control rating (0-9) (Ambrosia artemisifolia [34]): 0 (no effect); GOSHI control rating (0-9) (Gossypium hirsutum [35]): 9 (complete kill); HORVW control rating (0-9) (Hordeum vulgare [36]): 0 (no effect)
COc1ccc(-c2nnc(C(=O)N[C@@H](C)c3ccccc3)o2)cc1 [Example 19] | 8 (approaching complete kill) | 6 (herbicidal effect) | 9 (complete kill) | 5 (definite injury) | 8 (approaching complete kill) | 4 (injury) | 7 (good herbicidal effect) | 8 (approaching complete kill) | 3 (moderate effect) | 2 (slight effect) | 6 (herbicidal effect) | 8 (approaching complete kill) | 9 (complete kill) | 3 (moderate effect) | 9 (complete kill) | 7 (good herbicidal effect) | 9 (complete kill) | 3 (moderate effect) | 9 (complete kill) | 7 (good herbicidal effect) | VERPE control rating (0-9) (Veronica persica [21]): 9 (complete kill); GALAP control rating (0-9) (Galium aparine [22]): 0 (no effect); AMARE control rating (0-9) (Amaranthus retroflexus [23]): 9 (complete kill); GLXMA control rating (0-9) (Glycine max [24]): 0 (no effect); PAPRH control rating (0-9) (Papaver rhoeas [25]): 9 (complete kill); LAMPU control rating (0-9) (Lamium purpureum [26]): 8 (approaching complete kill); ALOMY control rating (0-9) (Alopecurus myosuroides [27]): 0 (no effect); TRZAW control rating (0-9) (Triticum aestivum [28]): 0 (no effect); IPOHE control rating (0-9) (Ipomoea hederacea [29]): 0 (no effect); STEME control rating (0-9) (Stellaria media [30]): 6 (herbicidal effect); SETVI control rating (0-9) (Setaria viridis [31]): 7 (good herbicidal effect); ZEAMX control rating (0-9) (Zea mays [32]): 0 (no effect); ABUTH control rating (0-9) (Abutilon theophrasti [33]): 1 (trace effect); AMBEL control rating (0-9) (Ambrosia artemisifolia [34]): 0 (no effect); GOSHI control rating (0-9) (Gossypium hirsutum [35]): 0 (no effect); HORVW control rating (0-9) (Hordeum vulgare [36]): 0 (no effect)
